The values below come from patent US5856506A, “Phosphatase inhibitors and methods of use thereof” (University of Pittsburgh, priority 1997, dated 1999).

In one assay the test system is MDA-MB-231 cells. As to the kind of experiment: Cell cycle distribution by flow cytometry (propidium iodide). Type of assay: cell-based, human. Conditions: for cell cycle distribution: 88 μM, MDA-MB-231. An excerpt:
FIGS. 10A-D depict cell cycle distribution of human breast cancer cells after treatment with compound 1f determined by flow cytometry. […] Fluorescence channel measures intracellular propidium iodide concentration, an index of DNA content. Horizontal bars are the gating positions that allow for cell cycle analysis. […] Open bars are control cells and black bars are cells treated with compound 1f. […] The mean values were obtained from three independent determinations. Open bars are control cells and black bars are cells treated with 88 μM compound 1f.
MDA-MB-231 cells (6.5×10^5 /cm^2) were plated and incubated at 37° C. for 48 h. The plating medium was then aspirated off, and medium containing a concentration of compound 1f that caused approximately 50% growth inhibition (88-100 μM) was added for 48 to 72 h. Untreated cells at a similar cell density were used as control populations. Single cell preparations were fixed in ice-cold 1% paraformaldehyde, centrifuged at 1,000×g for 5 min, resuspended in Puck's saline, centrifuged, and resuspended in ice-cold 70% ethanol overnight. The cells were removed from fixatives by centrifugation (1,000×g for 5 min) and stained with a 5 μg/mL propidium iodide and 50 μg/mL RNase A solution. Flow cytometry analyses were conducted with a Becton Dickinson FACS Star. Single parameter DNA histograms were collected for 10,000 cells, and cell cycle kinetic parameters calculated using DNA cell cycle analysis software version C (Becton Dickinson). Experiments at 72 h were performed at least 3 independent times.
(In general: Flow cytometry measures light scatter and fluorescence of single cells or particles in a stream.)

The next assay concerns Recombinant human CDC25B. The experiment in a line: CDC25B phosphatase assay, GST fusion protein, fluorescein diphosphate. Format: biochemical. Conditions: none = 100; 1 hour preincubation; concentration not given (0.3-100 μM tested). The procedure:
The compounds of the present invention are also capable of inhibiting dual specificity phosphatases, for example CDC25A and CDC25B. Phosphatases CDC25A and CDC25B are disclosed in U.S. Pat. No. 5,441,880. Inhibition of dual specificity phosphatases is defined herein as inhibition of the activity of CDC25A and/or CDC25B at a concentration of 100 μM of the inhibitor compound. In a preferred embodiment, the activity of the phosphatase is inhibited by at least 10%. In more preferred embodiments, the activity of the phophatase is inhibited by at least 25%, or even more preferably, by at least 50%. The ability of the compounds of the present invention to inhibit the phosphatases can be determined by measuring the effect of the compounds on the ability of CDC25 or CDC25B to dephosphorylate a substrate. Appropriate methods are known to those of ordinary skill in the art, and include, for example, calorimetric assays. A suitable assay is described in U.S. Pat. No. 5,441,880, the disclosure of which is incorporated herein by reference. […] The assay may be performed as a rapid calorimetric microtitration plate assay.
Compounds 1a-1r were assessed for ability to inhibit CDC25A and CDC25B activity. Recombinant human CDC25A and CDC25B were obtained as a glutahione-S-transferase (GST) fusion protein using human cDNA and standard molecular biological methods. The cDNA constructs are in a plasmid that is expressed in E. coli under the control of isopropyl-beta-D-[…] (IPTG). The bacterial pellet was disrupted by sonication, and centrifuged at 10,000×g. Using glutathione-agarose beads, the fusion protein was purified from postmicrosomal supernant fraction as described by Baratte et al. (1992) Anticancer Res. 12: 873-880. Phosphatase activity was assayed with a spectrofluorimeter under the following conditions: 1 unit (1 U=amount of protein that induces 33 fluoresence units/minute of product) of fusion protein in a final incubation mixture (150 μL) comprised of 25 mM Tris (pH=8.0), 5 mM EDTA, 33 μg/ml BSA, and 20 μM fluorescein diphosphate in 96-well microtiter plates. Plates were preincubated for 1 hour with 0 (control), 0.3, 1, 3, 10, 30, 100 μM compounds at room temperature. After the 1 hour incubation at room temperature, fluorescence of the fluorescein product (Ex. 485 nm; Em. 530 nm) were measured with a Biosystems Cytofluor II (Framingham, Mass.).

The structures appear in SMILES notation.

`CCCCCCCCCC(=O)NC(CCC(=O)N(CCNC(=O)c1nc(-c2ccccc2)oc1-c1ccccc1)Cc1ccccc1)C(=O)O` (stereo not shown) [Compound 1f]: the cell cycle distribution entry was “prominent accumulation in the Gi phase with a concomitant decrease in both S and G2/M phases” in the assay with MDA-MB-231 cells (48 h); “prominent accumulation in the G1 phase” in the assay on MDA-MB-231 cells (72 h). For the same molecule, the “site of blockage in cell cycle progression” value in the assay with MDA-MB-231 cells (MDA-MB-231, conclusion) is listed as “blockage in cell cycle progression is at the G1 checkpoint”. In the assay on Recombinant human CDC25B, the “CDC25B activity remaining, percent of control” value is listed as 15%.
